Results: ChEMBL document CHEMBL1201862, “PubChem BioAssay data set” (2004)
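Protocol summary: plate cells (96-well), add compound at 5 concentrations, incubate 48 h, interpolate endpoints linearly. GI50: concentration for 50% inhibition of growth.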 Calls of active or inactive are those of the source. Cut-off read from the data, not from the text of the source: active = GI50 up to about 1.1 µM and inactive = higher.

Tests used:
Assay in all cases: inhibition of tumour cell growth, NCI panel, 48 h
[1] = system: 786-0
[2] = system: A549
[3] = system: ACHN
[4] = system: CCRF-CEM
[5] = system: COLO 205
[6] = system: DLD-1
[7] = system: DMS-114
[8] = system: DMS-273
[9] = system: HCC 2998
[10] = system: HCT-116
[11] = system: HCT-15
[12] = system: HL-60
[13] = system: HOP-62
[14] = system: HOP-92
[15] = system: HT-29
[16] = system: IGROV-1
[17] = system: K562
[18] = system: KM-20L2
[19] = system: KM12
[20] = system: LOX IMVI
[21] = system: LXFL 529
[22] = system: M14
[23] = system: M19-MEL
[24] = system: MOLT-4
[25] = system: Malme-3M
[26] = system: NCI-H226
[27] = system: NCI-H460
[28] = system: NCI-H522
[29] = system: OVCAR-3
[30] = system: OVCAR-4
[31] = system: OVCAR-5
[32] = system: OVCAR-8
[33] = system: RPMI-8226
[34] = system: RXF 393
[35] = system: SF-268
[36] = system: SF-539
[37] = system: SK-MEL-28
[38] = system: SK-MEL-2
[39] = system: SK-MEL-5
[40] = system: SK-OV-3
[41] = system: SN12C
[42] = system: SNB-19
[43] = system: SNB-78
[44] = system: SR
[45] = system: SW-620
[46] = system: TK-10
[47] = system: U-251
[48] = system: UACC-62
[49] = system: UO-31
[50] = system: XF498
[51] = system: A498
[52] = system: CAKI-1
[53] = system: EKVX
[54] = system: HOP-18
[55] = system: NCI-H23
[56] = system: SF-295
[57] = system: SNB-75
[58] = system: UACC-257

In the case of `CC(C)=CCC/C(C)=C/Cc1c(O)ccc2c1[nH]c1cc(O)c(C)cc12`, the GI50 [1] was 9.48 µM (inactive), the GI50 [2] was 8.87 µM (inactive) and the GI50 [3] was 8.85 µM (inactive). For the same compound, the GI50 [4] was 7.55 µM (inactive), the GI50 [5] was > 25 µM (inactive) and the GI50 [6] was 14.1 µM (inactive). The GI50 [7] was 13.8 µM (inactive), the GI50 [8] was 11 µM (inactive) and the GI50 [9] was 11 µM (inactive). The GI50 [10] was 13.3 µM (inactive), the GI50 [11] was 9.71 µM and the GI50 [12] was 7.53 µM (inactive). For the same compound, the GI50 [13] was 7.62 µM (inactive), the GI50 [14] was > 25 µM (inactive) and the GI50 [15] was > 25 µM (inactive). For the same compound, the GI50 [16] was 14.7 µM (inactive), the GI50 [17] was 9.38 µM (inactive) and the GI50 [18] was 13.4 µM (inactive). For the same compound, the GI50 [19] was 10.6 µM (inactive), the GI50 [20] was 8.36 µM (inactive) and the GI50 [21] was 10.1 µM (inactive). The GI50 [22] was 11.8 µM (inactive), the GI50 [23] was 15.5 µM (inactive) and the GI50 [24] was 6.07 µM (inactive). The GI50 [25] was 13.6 µM (inactive), the GI50 [26] was 15.6 µM (inactive) and the GI50 [27] was 11.9 µM (inactive). The GI50 [28] was 7.96 µM (inactive), the GI50 [29] was 5.73 µM (inactive) and the GI50 [30] was 3.78 µM (inactive). For the same compound, the GI50 [31] was > 25 µM (inactive), the GI50 [32] was 9.46 µM (inactive) and the GI50 [33] was 17.8 µM (inactive). For the same compound, the GI50 [34] was 14 µM (inactive), the GI50 [35] was 10.7 µM (inactive) and the GI50 [36] was 6.95 µM (inactive). For the same compound, the GI50 [37] was > 25 µM (inactive), the GI50 [38] was > 25 µM (inactive) and the GI50 [39] was 16.6 µM (inactive). For the same compound, the GI50 [40] was 24.2 µM (inactive), the GI50 [41] was 14.6 µM (inactive) and the GI50 [42] was 9.46 µM (inactive). For the same compound, the GI50 [43] was > 25 µM (inactive), the GI50 [44] was 8.13 µM (inactive) and the GI50 [45] was 13.9 µM (inactive). For the same compound, the GI50 [46] was > 25 µM (inactive), the GI50 [47] was 10 µM (inactive) and the GI50 [48] was 16.9 µM (inactive). For the same compound, the GI50 [49] was 7.73 µM (inactive) and the GI50 [50] was 24.7 µM (inactive).
With `Cc1nc(Nc2ccc(Cl)cc2)sc1C(=O)NNc1ccc([N+](=O)[O-])cc1[N+](=O)[O-]` the GI50 [1] was 16.3 µM (inactive), the GI50 [51] was 15.9 µM (inactive) and the GI50 [2] was 16.6 µM (inactive). For the same compound, the GI50 [3] was 17.3 µM (inactive), the GI50 [52] was 23.6 µM (inactive) and the GI50 [4] was 17.8 µM (inactive). For the same compound, the GI50 [5] was 19.8 µM (inactive), the GI50 [6] was 14.2 µM (inactive) and the GI50 [7] was 14.6 µM (inactive). The GI50 [8] was 19.5 µM (inactive), the GI50 [53] was 14.9 µM (inactive) and the GI50 [9] was 16.3 µM (inactive). For the same compound, the GI50 [10] was 13.8 µM (inactive), the GI50 [12] was 16 µM (inactive) and the GI50 [54] was 14 µM (inactive). For the same compound, the GI50 [13] was 12.2 µM (inactive), the GI50 [14] was 23.6 µM (inactive) and the GI50 [16] was 20.9 µM (inactive). The GI50 [17] was 16.8 µM (inactive), the GI50 [18] was 16.2 µM (inactive) and the GI50 [19] was 15.8 µM (inactive). The GI50 [20] was 15.1 µM (inactive), the GI50 [21] was 17.1 µM (inactive) and the GI50 [22] was 24.7 µM (inactive). The GI50 [23] was 22 µM (inactive), the GI50 [24] was 15 µM (inactive) and the GI50 [25] was 20.7 µM (inactive). The GI50 [26] was 15.7 µM (inactive), the GI50 [55] was 17.3 µM (inactive) and the GI50 [27] was 18 µM (inactive). For the same compound, the GI50 [28] was 14 µM (inactive), the GI50 [29] was 19.3 µM (inactive) and the GI50 [30] was 18.4 µM (inactive). The GI50 [31] was 16.3 µM (inactive), the GI50 [32] was 21.4 µM (inactive) and the GI50 [33] was 18.2 µM (inactive). The GI50 [34] was 16.3 µM (inactive), the GI50 [35] was 18.7 µM (inactive) and the GI50 [56] was 18.1 µM (inactive). The GI50 [36] was 17.3 µM (inactive), the GI50 [37] was 19.9 µM (inactive) and the GI50 [38] was 17.9 µM (inactive). The GI50 [39] was 15.6 µM (inactive), the GI50 [40] was 29.2 µM (inactive) and the GI50 [41] was 17.7 µM (inactive). The GI50 [42] was 16.7 µM (inactive), the GI50 [57] was 16.7 µM (inactive) and the GI50 [43] was 39.1 µM (inactive). For the same compound, the GI50 [45] was 22 µM (inactive), the GI50 [46] was 19.8 µM (inactive) and the GI50 [47] was 15.6 µM (inactive). The GI50 [58] was 16.4 µM (inactive), the GI50 [48] was 14.3 µM (inactive) and the GI50 [49] was 14.2 µM (inactive). For the same compound, the GI50 [50] was 16.9 µM (inactive).
For `NC(CO)c1ccccc1` (stereo unspecified), the GI50 [2] was > 100 µM (inactive), the GI50 [3] was > 100 µM (inactive) and the GI50 [52] was > 100 µM (inactive). For the same compound, the GI50 [4] was 8.71 µM (inactive), the GI50 [6] was > 100 µM (inactive) and the GI50 [7] was > 100 µM (inactive). For the same compound, the GI50 [8] was > 100 µM (inactive), the GI50 [53] was > 100 µM (inactive) and the GI50 [9] was > 100 µM (inactive). The GI50 [10] was > 100 µM (inactive), the GI50 [11] was over 100 µM and the GI50 [12] was > 100 µM (inactive). For the same compound, the GI50 [54] was 24.7 µM (inactive), the GI50 [13] was > 100 µM (inactive) and the GI50 [14] was > 100 µM (inactive). The GI50 [15] was > 100 µM (inactive), the GI50 [16] was > 100 µM (inactive) and the GI50 [18] was > 100 µM (inactive). The GI50 [19] was > 100 µM (inactive), the GI50 [20] was > 100 µM (inactive) and the GI50 [21] was > 100 µM (inactive). The GI50 [22] was > 100 µM (inactive), the GI50 [24] was > 100 µM (inactive) and the GI50 [25] was > 100 µM (inactive). The GI50 [26] was > 100 µM (inactive), the GI50 [55] was > 10 µM (inactive) and the GI50 [27] was > 100 µM (inactive). The GI50 [28] was > 100 µM (inactive), the GI50 [29] was > 100 µM (inactive) and the GI50 [30] was > 100 µM (inactive). For the same compound, the GI50 [31] was > 100 µM (inactive), the GI50 [32] was > 100 µM (inactive) and the GI50 [34] was > 100 µM (inactive). For the same compound, the GI50 [35] was > 100 µM (inactive), the GI50 [56] was > 100 µM (inactive) and the GI50 [36] was > 100 µM (inactive). The GI50 [37] was > 100 µM (inactive), the GI50 [38] was > 100 µM (inactive) and the GI50 [39] was > 100 µM (inactive). The GI50 [40] was > 100 µM (inactive), the GI50 [42] was > 100 µM (inactive) and the GI50 [57] was > 100 µM (inactive). For the same compound, the GI50 [43] was > 100 µM (inactive), the GI50 [44] was > 100 µM (inactive) and the GI50 [45] was > 100 µM (inactive). For the same compound, the GI50 [46] was > 100 µM (inactive), the GI50 [47] was > 100 µM (inactive) and the GI50 [58] was > 100 µM (inactive). For the same compound, the GI50 [48] was > 100 µM (inactive), the GI50 [49] was > 100 µM (inactive) and the GI50 [50] was > 100 µM (inactive).
